In patent US20080305536A1, “Method for Culturing Microorganisms” (priority 2005, published 2008):

Test system: NCIMB 11955
Details: USM, 1% glucose, 60° C., 250 rpm, grown for 36 hours; flasks with 0, 1, 2, 3 or 4% ethanol; FIG. 1
Protocol: Ethanol tolerance of a wild-type organism (NCIMB 11955) was tested in order to determine the starting point. The organism was grown overnight (LB agar plate, 60° C.) and a colony used to inoculate an overnight culture (100 mL USM, 1% glucose, 60° C., 250 rpm). This culture was then used to inoculate a triplicate series of flasks containing 0, 1, 2, 3, or 4% ethanol which were then grown for 36 hours before the growth was measured (50 mL USM, 1% glucose, 60° C., 250 rpm).

CCO [ethanol]
ethanol concentration tolerated (growth measured): ≤ 4%
